Assay results published in US12331033B2, “Inhibitors of SARM1” (Disarm Therapeutics, Inc., priority 2020, dated 2025).

Biological target: SARM1 (ARM-SAM-TIR) (Homo sapiens (Human), UniProt Q6SZW1)
Assay: ARM-SAM-TIR SARM1 IC50 assay (NADase activity, NAD+ cleavage, RapidFire MS)
Type: biochemical
Conditions: ARM-SAM-TIR lysate 5 μg/mL, 2 h pre-incubation, 5 μM NAD+, 2 hr room temperature
Method: This Example describes an assay of ARM-SAM-TIR NADase activity and use of this assay to measure the efficacy of compounds of Formula I or Formula I′ to block SARM1 mediated NAD+ cleavage. This assay was optimized in such a way as to characterize the efficacy of the compounds in Formula I or Formula I′ to inhibit SARM1 activity and to calculate an IC50 value for each compound. This assay makes use of full length SARM1, which encompasses the ARM, SAM and TIR domains.
NRK1-HEK293T cells were seeded onto 150 cm^2 plates at 20×10^6 cells per plate. The next day, the cells were transfected with 15 μg ARM-SAM-TIR expression plasmid, SEQ ID NO: 1.
The cultures were supplemented with 1 mM NR at time of transfection to minimize toxicity from ARM-SAM-TIR overexpression. Forty-eight hours after transfection, cells were harvested, pelleted by centrifugation at 1,000 rpm (Sorvall ST 16R centrifuge, Thermo Fisher), and washed once with cold PBS (0.01 M phosphate buffered saline NaCl 0.138 M; KCl 0.0027 M; pH 7.4). The cells were resuspended in PBS with protease inhibitors (cOmplete™ protease inhibitor cocktail, Roche product #11873580001) and cell lysates were prepared by sonication (Branson Sonifer 450, output=3, 20 episodes of stroke). The lysates were centrifuged (12,000×g for 10 min at 4° C.) to remove cell debris and the supernatants (containing ARM-SAM-TIR protein) were stored at −80° C. for later use in the in vitro ARM-SAM-TIR NADase assay (see below). Protein concentration was determined by the Bicinchoninic (BCA) method and used to normalize lysate concentrations.
The enzymatic assay was performed in a 384-well polypropylene plate in Dulbecco's PBS buffer in a final assay volume of 20 μL. ARM-SAM-TIR lysate with a final concentration of 5 μg/mL was pre-incubated with the respective compound at 1% DMSO final assay concentration over 2 h at room temperature. The reaction was initiated by addition of 5 μM final assay concentration of NAD+ as substrate. After a 2 hr room temperature incubation, the reaction was terminated with 40 μL of stop solution of 7.5% trichloroactetic acid in acetonitrile. The NAD+ and ADPR concentrations were analyzed by a RapidFire High Throughput Mass Spectrometry System (Agilent Technologies, Santa Clara, Calif.) using an API4000 triple quadrupole mass spectrometer (AB Sciex Framingham, Mass.).

Chain of SARM1 (ARM-SAM-TIR) (Q6SZW1 other isoform, or with tags, fused parts or gaps): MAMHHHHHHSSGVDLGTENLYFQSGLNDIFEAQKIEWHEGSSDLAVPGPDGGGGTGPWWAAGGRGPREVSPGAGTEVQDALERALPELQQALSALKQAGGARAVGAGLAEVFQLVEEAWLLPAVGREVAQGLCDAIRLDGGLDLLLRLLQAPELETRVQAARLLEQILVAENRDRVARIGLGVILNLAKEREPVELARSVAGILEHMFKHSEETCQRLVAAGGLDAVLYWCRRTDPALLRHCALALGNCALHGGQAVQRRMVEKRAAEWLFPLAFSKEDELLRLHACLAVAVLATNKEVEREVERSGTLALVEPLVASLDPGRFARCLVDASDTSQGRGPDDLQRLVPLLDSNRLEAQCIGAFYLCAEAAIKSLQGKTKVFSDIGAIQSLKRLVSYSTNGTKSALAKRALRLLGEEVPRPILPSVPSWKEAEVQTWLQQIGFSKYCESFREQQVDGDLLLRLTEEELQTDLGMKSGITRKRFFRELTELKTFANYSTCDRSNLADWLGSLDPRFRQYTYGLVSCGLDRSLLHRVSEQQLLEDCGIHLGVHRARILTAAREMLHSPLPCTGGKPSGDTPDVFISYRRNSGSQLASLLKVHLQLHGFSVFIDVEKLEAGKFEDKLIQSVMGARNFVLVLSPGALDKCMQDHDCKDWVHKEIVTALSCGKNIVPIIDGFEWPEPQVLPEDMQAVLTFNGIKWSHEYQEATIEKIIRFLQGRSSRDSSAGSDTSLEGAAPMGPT

SMILES	IC50
CC(C)(C)OC(=O)N(CC(=O)Nc1cc(-c2ccncc2)n[nH]1)c1ccc(Cl)cc1 [Example 5]	< 5 µM
Cc1cc(-c2n[nH]c(NC(=O)CCc3ccc(Cl)cc3)n2)ccn1 [Example 42]	> 30 µM
Cc1c(-c2ccncc2)n[nH]c1NC(=O)CC(C)c1ccc(F)cc1 (centres unmarked) [Example 246]	< 5 µM
O=C(CCc1ccc(Cl)nc1)Nc1cc(-c2ccnnc2)n[nH]1 [Example 19]	< 5 µM
O=C(CCc1ccc(Cl)cc1)Nc1nnc(-c2ccns2)[nH]1 [Example 157]	< 5 µM
Cc1c(-c2ccnnc2)n[nH]c1NC(=O)CC1CCOc2cc(Cl)ccc21 (centres unmarked) [Example 231]	< 5 µM
[2H]C([2H])([2H])c1c(-c2ccncc2)n[nH]c1NC(=O)CCc1ccc(Cl)nc1 [Example 282]	< 5 µM
O=C(Nc1nnc(-c2ccncc2)[nH]1)[C@@H]1C[C@H]1c1ccccc1 [Example 104]	5 to 15 µM
CC(C)(CC(=O)Nc1nnc(-c2ccncc2)[nH]1)c1ccccc1 [Example 121]	15 to 30 µM
O=C(CCc1ccc(Cl)s1)Nc1nnc(-c2ccncc2)[nH]1 [Example 81]	< 5 µM
O=C(C[C@@H]1CCOc2nc(Cl)ccc21)Nc1nnc(-c2ccncc2)[nH]1 [Example 233]	< 5 µM
O=C(Nc1nnc(-c2ccncc2)[nH]1)NC1CCOc2cc(Cl)ncc21 (centres unmarked) [Example 226]	< 5 µM
CN(Cc1ccc(Cl)cc1)C(=O)Nc1cc(-c2ccncc2)n[nH]1 [Example 6]	< 5 µM
O=C(CCc1cccc(Cl)c1)Nc1nnc(-c2ccncc2)[nH]1 [Example 137]	< 5 µM
Cc1c(-c2ccncc2)n[nH]c1NC(=O)[C@H]1C[C@H](c2ccc(Cl)cc2)C1 [Example 182]	< 5 µM
O=C(C[C@H]1CCCc2ccccc21)Nc1nnc(-c2ccncc2)[nH]1 [Example 90]	< 5 µM
Cc1c(-c2ccnnc2)n[nH]c1NC(=O)CCc1ccc(Cl)s1 [Example 152]	< 5 µM
O=C(C[C@@H]1CCCc2ccccc21)Nc1nnc(-c2ccncc2)[nH]1 [Example 91]	< 5 µM
O=C(CCc1ccc(Cl)cc1)Nc1[nH]nc(-c2ccncc2)c1F [Example 168]	< 5 µM
O=C(CCc1ccc(Cl)nc1)Nc1[nH]nc(-c2ccncc2)c1C1CC1 [Example 228]	< 5 µM
Cc1c(-c2ccncc2)n[nH]c1NC(=O)CC1CCOc2cc(Cl)ccc21 (centres unmarked) [Example 173]	< 5 µM
Cc1c(-c2ccncc2)n[nH]c1NC(=O)Cn1cc(C)c2ccccc21 [Example 241]	5 to 15 µM
O=C(Nc1nnc(-c2ccncc2)[nH]1)NC1CCOc2cc(Cl)ccc21 (centres unmarked) [Example 183]	5 to 15 µM
CC(C)(C)c1ccc(CCC(=O)Nc2nnc(-c3ccncc3)[nH]2)cc1 [Example 78]	5 to 15 µM
Cc1c(-c2ccncc2)n[nH]c1NC(=O)N1CC(c2ccc(Cl)cc2)C1 [Example 218]	< 5 µM

SMILES	IC50
O=C(Nc1nnc(-c2ccncc2)[nH]1)C12CC(c3ccccc3)(C1)C2 [Example 66]	< 5 µM
O=C(CCc1ccc(OC(F)(F)F)cc1)Nc1nnc(-c2ccncc2)[nH]1 [Example 120]	< 5 µM
O=C(CN1C(=O)COc2cc(Cl)ccc21)Nc1nnc(-c2ccncc2)[nH]1 [Example 39]	> 30 µM
CN(C(=O)CCc1ccc(Cl)nc1)c1cc(-c2ccncc2)n[nH]1 [Example 239]	< 5 µM
O=C(CCc1ccc(Cl)cc1)Nc1nnc(-c2ccncc2)s1 [Example 115]	> 30 µM
CCOC(=O)c1c(-c2ccncc2)n[nH]c1NC(=O)CCc1ccc(Cl)cc1 [Example 187]	< 5 µM
O=C(CC1CCOc2cc(Cl)ncc21)Nc1nnc(-c2ccncc2)[nH]1 (centres unmarked) [Example 180]	< 5 µM
Cc1c(-c2ccncc2)n[nH]c1NC(=O)CCc1ccc(C#N)c(F)c1 [Example 274]	< 5 µM
Cc1c(-c2ccncc2)n[nH]c1NC(CCc1ccc(Cl)cc1)C(F)(F)F (centres unmarked) [Example 317]	5 to 15 µM
Cc1c(-c2ccncc2F)n[nH]c1NC(=O)CCc1ccc(Cl)nc1 [Example 314]	< 5 µM
C[C@@H](CC(=O)Nc1nnc(-c2ccncc2)[nH]1)c1ccccc1 [Example 93]	15 to 30 µM
CN[C@@H](Cc1ccc(Cl)cc1)C(=O)Nc1cc(-c2ccncc2)n[nH]1 [Example 176]	< 5 µM
Cc1c(-c2ccncc2)n[nH]c1NC(=O)C1Cc2ccccc2CO1 (centres unmarked) [Example 323]	5 to 15 µM
Nc1cc(-c2cc(NC(=O)CCc3ccc(Cl)cc3)[nH]n2)ccn1 [Example 31]	< 5 µM
[2H]C([2H])(C(=O)Nc1[nH]nc(-c2ccnnc2)c1C)C([2H])([2H])c1ccc(Cl)nc1 [Example 178]	< 5 µM
N#Cc1c(-c2ccncc2)c[nH]c1NC(=O)CCc1ccc(Cl)nc1 [Example 211]	< 5 µM
[2H]C([2H])(C(=O)Nc1cc(-c2ccncc2)n[nH]1)C([2H])([2H])c1ccc(Cl)cc1 [Example 162]	< 5 µM
Cc1nn(C)c(C)c1OCC(=O)Nc1[nH]nc(-c2ccncc2)c1C [Example 240]	5 to 15 µM
O=C(CCc1ccc(F)cc1Cl)Nc1nnc(-c2ccncc2)[nH]1 [Example 113]	< 5 µM
O=C(Nc1nnc(-c2ccncc2)[nH]1)[C@H]1C[C@H](c2ccc(Cl)cc2)C1 [Example 22]	< 5 µM
O=C(CCc1ccc(Cl)cc1)Nc1nnc(-c2cncs2)[nH]1 [Example 60]	< 5 µM
Cc1c(-c2ccnnc2)n[nH]c1NC(=O)CCc1ccc(Cl)cc1 [Example 155]	< 5 µM
Cc1c(-c2ccncc2F)n[nH]c1NC(=O)CCc1ccc(Cl)c(F)c1 [Example 320]	< 5 µM
Cc1c(-c2ccncc2)n[nH]c1NC(=O)c1ccc(-n2ccnn2)cc1 [Example 242]	5 to 15 µM
[2H]C([2H])(C(=O)Nc1nnc(-c2ccncc2)[nH]1)C([2H])([2H])c1ccc(Cl)nc1 [Example 8]	< 5 µM

SMILES	IC50
CN(Cc1ccc(Cl)cc1)C(=O)Nc1nnc(-c2ccncc2)[nH]1 [Example 164]	< 5 µM
O=C(CCc1ccc2ccccc2c1)Nc1nnc(-c2ccncc2)[nH]1 [Example 130]	> 30 µM
O=C(Nc1cc(-c2ccncc2)n[nH]1)[C@H]1C[C@H](c2ccc(Cl)nc2)C1 [Example 236]	< 5 µM
O=C(CCc1ccc(Cl)cc1)Nc1cc(-c2ccncc2-c2ccccc2)n[nH]1 [Example 299]	< 5 µM
N#Cc1c(-c2ccnnc2)n[nH]c1NC(=O)CCc1ccc(Cl)nc1 [Example 304]	< 5 µM
Cc1c(-c2ccncc2F)n[nH]c1NC(=O)[C@H]1C[C@H](c2ccc(Cl)cc2)C1 [Example 318]	< 5 µM
CN(C)C(=O)Cc1c(-c2ccncc2)n[nH]c1NC(=O)CCc1ccc(Cl)cc1 [Example 301]	< 5 µM
O=C(CCc1ccc(OC(F)F)cc1)Nc1nnc(-c2ccncc2)[nH]1 [Example 75]	< 5 µM
Cn1cc(CCC(=O)Nc2nnc(-c3ccncc3)[nH]2)cn1 [Example 133]	> 30 µM
CC(C)(C)OC(=O)N1CCC(CC(=O)Nc2nnc(-c3ccncc3)[nH]2)c2ccccc21 (centres unmarked) [Example 64]	> 30 µM
O=C(CCc1cnc(C(F)(F)F)nc1)Nc1cc(-c2ccncc2)n[nH]1 [Example 34]	< 5 µM
O=C(CCc1ccc(Cl)cn1)Nc1nnc(-c2ccncc2)[nH]1 [Example 106]	< 5 µM
C[C@H](CC(=O)Nc1nnc(-c2ccncc2)[nH]1)c1ccccc1 [Example 94]	15 to 30 µM
Cc1c(-c2ccncc2)n[nH]c1NC(=O)CCNC(=O)C1CC1C (centres unmarked) [Example 243]	5 to 15 µM
Cn1cncc1-c1nnc(NC(=O)CCc2ccc(Cl)cc2)[nH]1 [Example 163]	< 5 µM
Cc1cnccc1-c1cc(NC(=O)CCc2ccc(Cl)cc2)[nH]n1 [Example 198]	< 5 µM
O=C(CCc1ccc(Cl)cc1)Nc1cc(-c2ccncc2)cnc1O [Example 51]	> 30 µM
O=C(NCc1ccc(Cl)cc1)Nc1cc(-c2ccncc2)n[nH]1 [Example 7]	< 5 µM
Cc1c(-c2ccncc2)n[nH]c1NC(=O)CCc1nc(C2CC2)no1 [Example 251]	5 to 15 µM
Cc1c(-c2ccncc2)n[nH]c1NC(=O)CCc1cccc(Cl)c1 [Example 248]	< 5 µM
O=C(C[C@@H]1CCOc2cc(Cl)ccc21)Nc1cc(-c2ccnnc2)n[nH]1 [Example 207]	< 5 µM
O=C(CCc1ccc(Cl)cc1)Nc1cc(-c2ccncc2C2CC2)n[nH]1 [Example 298]	< 5 µM
CC(=O)Nc1nnc(-c2ccncc2)[nH]1 [Example 144]	> 30 µM
O=C(Nc1nnc(-c2ccnnc2)[nH]1)[C@H]1C[C@H](c2ccc(Cl)cc2)C1 [Example 196]	< 5 µM
